From patent US20250134869A1, “Pyrrolo[2,3-d]pyrimidinyl, Pyrrolo[2,3-b]pyrazinyl and Pyrrolo[2,3-d]pyridinyl Acryla-mides” (Pfizer Inc, priority 2021, published 2025)
Read-outs that look alike come from different tables or passages of the source.

Target: JAK3 enzyme (Homo sapiens (Human), UniProt P52333)
Experiment: JAK Caliper Enzyme Assay at 4 μM or 1 mM ATP
Format: biochemical
Method: JAK Caliper Enzyme Assay at […] or 1 mM ATP
Test article was solubilized in dimethyl sulfoxide (DMSO) to a stock concentration of 30 mM. An 11-point half log dilution series was created in DMSO with a top concentration of 600 μM. […] The compound plates were diluted 1 to 60 resulting in a top final assay compound concentration of 10 μM and a 2% DMSO concentration.
Test article and assay controls were added to a 384-well plate. Reaction mixtures contained 20 mM HEPES, pH 7.4, 10 mM magnesium chloride, 0.01% bovine serum albumin (BSA), 0.0005% Tween […] or 1 mM ATP and […] peptide substrate. […] The assays were initiated by the addition 1 nM JAK3 enzyme and were incubated at room temperature 75 minutes for JAK3. Enzyme concentrations and incubation times were optimized for each new enzyme preps and were modified slightly over time to ensure 20%-30% phosphorylation. The assays were stopped with a final concentration of 10 mM EDTA, 0.1% Coating Reagent and 100 mM HEPES, pH=7.4. The assay plates were placed on a Caliper Life Science Lab Chip 3000 (LC3000) instrument, and each well was sampled using appropriate separation conditions to measure the unphosphorylated and phosphorylated peptide.

[1] = read-out: JAK3 (4 μM ATP) IC50, 4 μM ATP
[2] = read-out: JAK3 (1 mM ATP) IC50, 1 mM ATP

JAK3 enzyme, sequence (P52333 whole entry, species assumed): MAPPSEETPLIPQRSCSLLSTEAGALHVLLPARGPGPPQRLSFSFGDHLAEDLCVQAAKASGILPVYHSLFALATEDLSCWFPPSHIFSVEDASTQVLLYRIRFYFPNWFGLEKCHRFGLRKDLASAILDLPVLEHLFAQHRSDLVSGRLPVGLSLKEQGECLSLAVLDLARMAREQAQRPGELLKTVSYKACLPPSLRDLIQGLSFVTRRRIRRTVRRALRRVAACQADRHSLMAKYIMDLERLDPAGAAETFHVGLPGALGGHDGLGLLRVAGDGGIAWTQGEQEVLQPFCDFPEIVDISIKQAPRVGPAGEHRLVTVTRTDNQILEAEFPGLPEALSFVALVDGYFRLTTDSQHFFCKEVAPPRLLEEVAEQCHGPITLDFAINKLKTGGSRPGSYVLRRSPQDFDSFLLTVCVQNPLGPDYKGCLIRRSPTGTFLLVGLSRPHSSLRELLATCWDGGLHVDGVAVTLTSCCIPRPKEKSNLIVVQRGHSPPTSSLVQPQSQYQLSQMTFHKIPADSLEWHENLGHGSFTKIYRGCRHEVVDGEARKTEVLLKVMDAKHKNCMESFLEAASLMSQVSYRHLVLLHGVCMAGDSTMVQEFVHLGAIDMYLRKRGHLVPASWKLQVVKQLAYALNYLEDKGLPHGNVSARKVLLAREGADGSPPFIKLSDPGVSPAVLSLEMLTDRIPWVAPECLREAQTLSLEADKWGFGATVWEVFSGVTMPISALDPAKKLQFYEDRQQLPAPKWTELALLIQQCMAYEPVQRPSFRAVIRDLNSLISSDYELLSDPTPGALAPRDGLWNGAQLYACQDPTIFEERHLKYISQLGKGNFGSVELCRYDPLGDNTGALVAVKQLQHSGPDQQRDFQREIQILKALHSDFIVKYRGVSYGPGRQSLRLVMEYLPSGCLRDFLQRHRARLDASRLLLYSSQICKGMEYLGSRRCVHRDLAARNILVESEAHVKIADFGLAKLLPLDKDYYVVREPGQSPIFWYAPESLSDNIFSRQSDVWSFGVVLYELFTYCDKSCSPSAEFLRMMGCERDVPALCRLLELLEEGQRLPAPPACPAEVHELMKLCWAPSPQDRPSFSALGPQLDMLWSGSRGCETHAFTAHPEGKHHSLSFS

IC50 [1] [nM]	IC50 [2] [nM]	Structure (SMILES)
1.2	99.5	C=CC(=O)N1CCC[C@@H](Nc2ncnc3[nH]cc(C)c23)C1 [Example 43, 1-{(3R)-3-[(5-methyl-7H-pyrrolo[2,3-d]pyrimidin-4-yl)amino]piperidin-1-yl}prop-2-en-1-one]
0.3	168	C=CC(=O)N1CCC[C@@H](Nc2ncnc3[nH]cc(CC)c23)C1 [Example 44, 1-{(3R)-3-[(5-ethyl-7H-pyrrolo[2,3-d]pyrimidin-4-yl)amino]piperidin-1-yl}prop-2-en-1-one]
1	168	C=CC(=O)N1CCC[C@@H](Nc2ncnc3[nH]cc(C#N)c23)C1 [Example 45, 4-{[(3R)-1-acryloylpiperidin-3-yl]amino}-7H-pyrrolo[2,3-d]pyrimidine-5-carbonitrile]
2.8	305	C=CC(=O)N1CCC[C@@H](Nc2ncnc3[nH]cc(CCOC)c23)C1 [Example 46, 1-[(3R)-3-{[5-(2-methoxyethyl)-7H-pyrrolo[2,3-d]pyrimidin-4-yl]amino}piperidin-1-yl]prop-2-en-1-one]
0.8	101	C#Cc1c[nH]c2ncnc(N3CC[C@H]4CCN(C(=O)C=C)C[C@H]43)c12 [Example 48, 1-[(3aS,7aS)-1-(5-ethynyl-7H-pyrrolo[2,3-d]pyrimidin-4-yl)octahydro-6H-pyrrolo[2,3-c]pyridin-6-yl]prop-2-en-1-one]
1.7	192	C=CC(=O)N1CC[C@@H](F)[C@@H](Nc2ncnc3[nH]ccc23)C1 [Example 54, 1-((3S,4R)-3-((7H-Pyrrolo[2,3-d]pyrimidin-4-yl)amino)-4-fluoropiperidin-1-yl)prop-2-en-1-one]
2	203	C=CC(=O)N1CCC[C@@H](Nc2ncnc3[nH]cc(CCO)c23)C1 [Example 55, (R)-1-(3-((5-(2-Hydroxyethyl)-7H-pyrrolo[2,3-d]pyrimidin-4-yl)amino)piperidin-1-yl)prop-2-en-1-one]
1.4	361	C=CC(=O)N1C[C@H](Nc2ncnc3[nH]ccc23)C[C@H](N(C)C)C1 [Example 57, 1-((3R,5S)-3-((7H-Pyrrolo[2,3-d]pyrimidin-4-yl)amino)-5-(dimethylamino)piperidin-1-yl)prop-2-en-1-one]
2.5	361	C=CC(=O)N1C[C@@H](C#N)C[C@@H](Nc2ncnc3[nH]ccc23)C1 [Example 58, (3S,5R)-5-((7H-pyrrolo[2,3-d]pyrimidin-4-yl)amino)-1-acryloylpiperidine-3-carbonitrile]
4.2	603	C=CC(=O)N1C[C@H](O)C[C@@H](Nc2ncnc3[nH]ccc23)C1 [Example 60, 1-((3R,5R)-3-((7H-Pyrrolo[2,3-d]pyrimidin-4-yl)amino)-5-hydroxypiperidin-1-yl)prop-2-en-1-one]
9	650	C=CC(=O)N1CCC[C@@H](Nc2ncnc3[nH]cc(CCC#N)c23)C1 [Example 62, 3-(4-{[(3R)-1-Acryloylpiperidin-3-yl]amino}-7H-pyrrolo[2,3-d]pyrimidin-5-yl)propanenitrile]
9.1	672	C=CC(=O)N1CCC[C@@H](Nc2nc(Nc3cccnc3)nc3[nH]ccc23)C1 [Example 63, 1-[(3R)-3-{[2-(Pyridin-3-ylamino)-7H-pyrrolo[2,3-d]pyrimidin-4-yl]amino}piperidin-1-yl]prop-2-en-1-one]
15.5	2070	C=CC(=O)N1C[C@H](Nc2ncnc3[nH]ccc23)C[C@@H](OC)C1 [Example 77, 1-[(3R,5R)-3-Methoxy-5-(7H-pyrrolo[2,3-d]pyrimidin-4-ylamino)piperidin-1-yl]prop-2-en-1-one]
139	> 10000	O=C(/C=C/CF)N1CC[C@@H]2CCN(c3ncnc4[nH]ccc34)[C@@H]2C1 [Example 87, (2E)-4-fluoro-1-[(3aS,7aS)-1-(7H-pyrrolo[2,3-d]pyrimidin-4-yl)octahydro-6H-pyrrolo[2,3-c]pyrdin-6-yl]but-2-en-1-one]
18.2	3390	C=CC(=O)N1C[C@H](Nc2ncnc3[nH]ccc23)C[C@@H](N(C)C)C1 [Example 88, 1-[(3R,5R)-3-(Dimethylamino)-5-(7H-pyrrolo[2,3-d]pyrimidin-4-ylamino)piperidin-1-yl]prop-2-en-1-one]
56.5	4650	C=C(F)C(=O)N1CCC[C@@H](Nc2ncnc3[nH]ccc23)C1 [Example 91, 2-fluoro-1-[(3R)-3-(7H-pyrrolo[2,3-d]pyrimidin-4-ylamino)piperidin-1-yl]prop-2-en-1-one]

IC50 [1] [nM]	IC50 [2] [nM]	Structure (SMILES)
2480	> 1000	C/C=C/C(=O)N1CCC[C@@H](Nc2ncnc3[nH]ccc23)C1 [Example 95, (2E)-1-[(3R)-3-(7H-pyrrolo[2,3-d]pyrimidin-4-ylamino)piperidin-1-yl]but-2-en-1-one]
904	> 10000	COC(=O)C/C=C/C(=O)N1CCC[C@@H](Nc2ncnc3[nH]ccc23)C1 [Example 97, methyl (3E)-5-oxo-5-[(3R)-3-(7H-pyrrolo[2,3-d]pyrimidin-4-ylamino)piperidin-1-yl]pent-3-enoate]
2630	> 10000	CS/C=C/C(=O)N1CCC[C@@H](Nc2ncnc3[nH]ccc23)C1 [Example 98, (2E)-3-(methylsulfanyl)-1-[(3R)-3-(7H-pyrrolo[2,3-d]pyrimidin-4-ylamino)piperidin-1-yl]prop-2-en-1-one]
255	> 10000	CC/C=C(\C#N)C(=O)N1CCC[C@@H](Nc2ncnc3[nH]ccc23)C1 [Example 99, (2E)-2-{[(3R)-3-(7H-pyrrolo[2,3-d]pyrimidin-4-ylamino)piperidin-1-yl]carbonyl}pent-2-enenitrile]
654	> 10000	O=C(/C=C\CO)N1CCC[C@@H](Nc2ncnc3[nH]ccc23)C1 [Example 100, (2Z)-4-hydroxy-1-[(3R)-3-(7H-pyrrolo[2,3-d]pyrimidin-4-ylamino)piperidin-1-yl]but-2-en-1-one]
881	> 10000	N#CC(C(=O)N1CCC[C@@H](Nc2ncnc3[nH]ccc23)C1)=C1CCOCC1 [Example 101, 3-oxo-3-[(3R)-3-(7H-pyrrolo[2,3-d]pyrimidin-4-ylamino)piperidin-1-yl]-2-(tetrahydro-4H-pyran-4-ylidene)propanenitrile]
353	> 10000	C/C=C\C(=O)N1CCC[C@@H](Nc2ncnc3[nH]ccc23)C1 [Example 102, (2Z)-1-[(3R)-3-(7H-pyrrolo[2,3-d]pyrimidin-4-ylamino)piperidin-1-yl]but-2-en-1-one]
4.7		C=CC(=O)N1CCCC(Nc2ncnc3[nH]ccc23)C1 (stereo not shown) [Example 103, 1-[3-(7H-pyrrolo[2,3-d]pyrimidin-4-ylamino)piperidin-1-yl]prop-2-en-1-one]
64.5		C=CC(=O)N1CCC[C@H](Nc2ncnc3[nH]ccc23)C1 [Example 104, 1-[(3S)-3-(7H-pyrrolo[2,3-d]pyrimidin-4-ylamino)piperidin-1-yl]prop-2-en-1-one]
49.1		CN(C)C/C=C/C(=O)N1CCC[C@H](Nc2ncnc3[nH]ccc23)C1 [Example 106, (2E)-4-(dimethylamino)-1-[(3S)-3-(7H-pyrrolo[2,3-d]pyrimidin-4-ylamino)piperidin-1-yl]but-2-en-1-one]
1160		O=C(/C=C/c1c[nH]cn1)N1CCC[C@@H](Nc2ncnc3[nH]ccc23)C1 [Example 107, (2E)-3-(1H-imidazol-4-yl)-1-[(3R)-3-(7H-pyrrolo[2,3-d]pyrimidin-4-ylamino)piperidin-1-yl]prop-2-en-1-one]
528	> 10000	COCCc1c[nH]c2ncnc(N[C@@H]3CCCN(C(=O)/C=C/CN(C)C)C3)c12 [Example 108, (2E)-4-(dimethylamino)-1-[(3R)-3-{[5-(2-methoxyethyl)-7H-pyrrolo[2,3-d]pyrimidin-4-yl]amino}pipendin-1-yl]but-2-en-1-one]
2820		C/C=C/C(=O)N1CCC[C@@H](Nc2ncnc3[nH]cc(CCOC)c23)C1 [Example 109, (2E)-1-[(3R)-3-{[5-(2-methoxyethyl)-7H-pyrrolo[2,3-d]pyrimidin-4-yl]amino}pipendin-1-yl]but-2-en-1-one]
1430		C=C(C)C(=O)N1CCC[C@@H](Nc2ncnc3[nH]cc(CCOC)c23)C1 [Example 110, 1-[(3R)-3-{[5-(2-methoxyethyl)-7H-pyrrolo[2,3-d]pyrimidin-4-yl]amino}piperidin-1-yl]-2-methylprop-2-en-1-one]
39.2	4740	C=CC(=O)N1CC[C@H]2CCN(c3ncnc4[nH]cc(C(C)=O)c34)[C@H]2C1 [Example 111, 1-[(3aR,7aR)-1-(5-Acetyl-7H-pyrrolo[2,3-d]pyrimidin-4-yl)octahydro-6H-pyrrolo[2,3-c]pyridin-6-yl]prop-2-en-1-one]

Structure (SMILES)	IC50 [1] [nM]	IC50 [2] [nM]
C=CC(=O)N1CCC[C@@H](Nc2ncnc3[nH]cc(CC(C)(C)O)c23)C1 [Example 53, (R)-1-(3-((5-(2-Hydroxy-2-methylpropyl)-7H-pyrrolo[2,3-d]pyrimidin-4-yl)amino)piperidin-1-yl)prop-2-en-1-one]	4	192
